Molecular target: T1, α-Glucosidase from Saccharomyces cerevisiae (Saccharomyces cerevisiae, UniProt P53341)
T1 construct: purchased Sigma-Aldrich (Madrid, Spain)
Test: α-Glucosidase inhibition assay (pNPG, absorbance 405 nm)
Format: biochemical
Settings: 1 mg/mL
Procedure: α-Glucosidase inhibition assay was performed following the previous method. Each 96-well microplate contained: 50 μL apple extract or the reference at different concentration and 100 μL of α-GLU (1U/mL) in phosphate buffer (pH 6.9). After 10 min, 50 μL of PNPG (50 μL) were added and incubated for 20 min at 37 °C. The absorbance was read at 405 nm. The percentage inhibition of α-glucosidase was calculated using the following formula:% inhibition = [(Abscontrol − AbsSample)/Abscontrol] × 100(1)

T1 sequence (P53341 whole entry): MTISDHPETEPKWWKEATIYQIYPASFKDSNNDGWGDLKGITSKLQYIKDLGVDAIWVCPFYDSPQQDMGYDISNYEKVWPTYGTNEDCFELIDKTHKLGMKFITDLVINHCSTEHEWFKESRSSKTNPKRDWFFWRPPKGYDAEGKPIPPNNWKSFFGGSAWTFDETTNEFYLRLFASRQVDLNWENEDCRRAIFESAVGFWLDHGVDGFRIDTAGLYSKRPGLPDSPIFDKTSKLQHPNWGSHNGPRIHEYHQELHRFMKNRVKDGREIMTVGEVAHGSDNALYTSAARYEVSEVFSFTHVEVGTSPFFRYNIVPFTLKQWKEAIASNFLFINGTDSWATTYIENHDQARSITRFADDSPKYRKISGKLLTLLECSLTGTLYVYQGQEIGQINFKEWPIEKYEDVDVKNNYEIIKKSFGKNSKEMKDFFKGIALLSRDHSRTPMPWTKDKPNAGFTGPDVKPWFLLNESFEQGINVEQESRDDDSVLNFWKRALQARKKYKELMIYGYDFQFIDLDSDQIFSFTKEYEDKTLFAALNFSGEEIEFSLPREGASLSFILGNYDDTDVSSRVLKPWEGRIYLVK

Q: Which inhibition at 1000 µg/mL does the source give for `C[C@H]1O[C@H](O[C@H]2[C@H](O)[C@@H](O)[C@@H](O[C@H]3[C@H](O)[C@@H](O)C(O)O[C@@H]3CO)O[C@@H]2CO)[C@H](O)[C@@H](O)[C@@H]1N[C@H]1C=C(CO)[C@@H](O)[C@H](O)[C@H]1O` (stereo partly shown) [Acarbose] here?
A: 100%
